Results as given in ChEMBL document CHEMBL1201862, “PubChem BioAssay data set” (2004).
The source made the active and inactive calls.

Legend:
[1] = biological target: 1-phosphatidylinositol 4,5-bisphosphate phosphodiesterase beta-3 (Homo sapiens, UniProt Q01970); assay: Fluorescence-based biochemical high throughput dose response assay to identify inhibitors of phospholipase C isozymes (PLC-B3).
[2] = biological target: 1-phosphatidylinositol 4,5-bisphosphate phosphodiesterase gamma-1 (Homo sapiens, UniProt P19174); assay: Counterscreen for inhibitors of phospholipase C isozymes (PLC-B3): Fluorescence-based biochemical high throughput dose response assay to identify inhibitors of phospholipase C isozymes (PLC-gamma1).
1-phosphatidylinositol 4,5-bisphosphate phosphodiesterase gamma-1, sequence (P19174 whole entry): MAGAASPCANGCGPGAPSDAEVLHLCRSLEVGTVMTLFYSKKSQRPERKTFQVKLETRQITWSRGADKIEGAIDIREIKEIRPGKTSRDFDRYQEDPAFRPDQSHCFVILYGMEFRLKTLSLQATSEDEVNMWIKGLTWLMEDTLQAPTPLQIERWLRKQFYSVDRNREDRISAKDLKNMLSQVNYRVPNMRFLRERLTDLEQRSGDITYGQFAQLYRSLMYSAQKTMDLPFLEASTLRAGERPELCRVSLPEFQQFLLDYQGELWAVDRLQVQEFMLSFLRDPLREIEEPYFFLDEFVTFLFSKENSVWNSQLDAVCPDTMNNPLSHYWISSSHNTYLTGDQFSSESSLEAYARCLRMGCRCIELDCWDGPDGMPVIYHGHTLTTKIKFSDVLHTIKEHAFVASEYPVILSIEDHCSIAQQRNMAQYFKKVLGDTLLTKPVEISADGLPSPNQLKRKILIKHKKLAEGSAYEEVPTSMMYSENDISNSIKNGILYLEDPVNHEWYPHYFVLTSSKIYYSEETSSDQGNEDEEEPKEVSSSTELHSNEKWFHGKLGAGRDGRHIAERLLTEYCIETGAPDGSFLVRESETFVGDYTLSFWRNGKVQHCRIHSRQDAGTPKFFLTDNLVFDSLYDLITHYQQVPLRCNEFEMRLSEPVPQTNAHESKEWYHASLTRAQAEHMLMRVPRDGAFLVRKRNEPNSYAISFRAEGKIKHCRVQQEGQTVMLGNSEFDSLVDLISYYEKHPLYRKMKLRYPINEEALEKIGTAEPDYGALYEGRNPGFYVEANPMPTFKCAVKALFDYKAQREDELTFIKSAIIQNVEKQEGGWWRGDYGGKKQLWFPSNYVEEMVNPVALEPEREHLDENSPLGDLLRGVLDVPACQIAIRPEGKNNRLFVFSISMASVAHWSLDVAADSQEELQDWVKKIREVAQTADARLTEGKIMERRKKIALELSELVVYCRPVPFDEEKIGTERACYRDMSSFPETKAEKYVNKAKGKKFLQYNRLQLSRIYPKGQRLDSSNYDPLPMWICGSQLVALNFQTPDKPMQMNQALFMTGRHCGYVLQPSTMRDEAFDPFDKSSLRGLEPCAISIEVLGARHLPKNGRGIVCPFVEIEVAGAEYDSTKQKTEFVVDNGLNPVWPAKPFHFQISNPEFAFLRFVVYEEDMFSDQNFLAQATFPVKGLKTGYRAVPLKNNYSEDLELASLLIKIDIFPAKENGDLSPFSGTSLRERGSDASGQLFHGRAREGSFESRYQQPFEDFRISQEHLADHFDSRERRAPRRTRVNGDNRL

[3] = biological target: T1, Beta-lactamase (Pseudomonas aeruginosa, UniProt Q79MP6); assay: inhibition of IMP-1 beta-lactamase activity – biochemical, epi-absorbance, selectivity assay for VIM-2 inhibitor project, dose response (AID 1920)
T1 sequence (Q79MP6 whole entry): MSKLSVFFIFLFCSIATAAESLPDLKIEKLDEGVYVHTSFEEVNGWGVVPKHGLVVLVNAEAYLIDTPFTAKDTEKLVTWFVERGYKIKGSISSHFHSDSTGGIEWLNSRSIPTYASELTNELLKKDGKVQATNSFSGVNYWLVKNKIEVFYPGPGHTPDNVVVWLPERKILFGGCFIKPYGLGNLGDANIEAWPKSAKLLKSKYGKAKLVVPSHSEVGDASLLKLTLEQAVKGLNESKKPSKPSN

[4] = biological target: T1, Beta-lactamase; assay: […] counterscreen for selective VIM-2 inhibitors: dose response biochemical high throughput screening assay to identify inhibitors of IMP-1 metallo-beta-lactamase.
[5] = biological target: Beta-lactamase (Salmonella choleraesuis (strain SC-B67), UniProt Q5J463); assay: Epi-absorbance-based counterscreen for selective VIM-2 inhibitors: dose response biochemical high throughput screening assay to identify inhibitors of TEM-1 serine-beta-lactamase.
[6] = biological target: Metabotropic glutamate receptor 3 (Rattus norvegicus, UniProt P31422); assay: inhibitors of rat mGlu3 Galpha15 signaling – TREx293 cells, calcium flux, mGlu3 NAM project, dose response (AID 651840); assay type: functional
[7] = biological target: Potassium channel subfamily K member 9 (Homo sapiens, UniProt Q9NPC2); assay: KCNK9 flux blockade, concentration-response – cell-based, FluxOR thallium flux, selectivity assay for TASK1 inhibitor project, SAR follow-up (AID 652211); assay type: functional;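 also: potency is for inhibitors of the channel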
Potassium channel subfamily K member 9, sequence (Q9NPC2 whole entry): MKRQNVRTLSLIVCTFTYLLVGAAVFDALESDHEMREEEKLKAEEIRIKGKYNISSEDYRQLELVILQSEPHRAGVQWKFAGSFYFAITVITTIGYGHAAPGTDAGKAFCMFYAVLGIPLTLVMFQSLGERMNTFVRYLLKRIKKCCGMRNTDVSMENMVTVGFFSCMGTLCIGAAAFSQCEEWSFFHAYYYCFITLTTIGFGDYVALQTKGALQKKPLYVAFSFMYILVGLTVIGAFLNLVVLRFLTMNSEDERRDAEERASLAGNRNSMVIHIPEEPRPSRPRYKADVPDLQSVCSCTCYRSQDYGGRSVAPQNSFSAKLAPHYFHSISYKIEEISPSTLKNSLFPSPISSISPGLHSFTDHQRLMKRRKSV

[8] = blockers of FN fibrillogenesis by fibroblasts – AH1F cells, Alexa488-FN fluorescence, cherry-picks, dose response (AID 1035475); assay type: functional, cell-based
[9] = biological target: T2, Oxysterols receptor LXR-beta (Homo sapiens, UniProt P55055); assay type: functional, cell-based;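 also: agonist activity at LXR measured by a cell-based luminescence readout across a dose range, run as a counterscreen for daf-12 agonists; HEK293 cells with Gal4-LXR fusion and GAL4-driven luciferase reporter; potency for activation of Gal4-LXR reporter so compounds are agonists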
T2 sequence (P55055 whole entry): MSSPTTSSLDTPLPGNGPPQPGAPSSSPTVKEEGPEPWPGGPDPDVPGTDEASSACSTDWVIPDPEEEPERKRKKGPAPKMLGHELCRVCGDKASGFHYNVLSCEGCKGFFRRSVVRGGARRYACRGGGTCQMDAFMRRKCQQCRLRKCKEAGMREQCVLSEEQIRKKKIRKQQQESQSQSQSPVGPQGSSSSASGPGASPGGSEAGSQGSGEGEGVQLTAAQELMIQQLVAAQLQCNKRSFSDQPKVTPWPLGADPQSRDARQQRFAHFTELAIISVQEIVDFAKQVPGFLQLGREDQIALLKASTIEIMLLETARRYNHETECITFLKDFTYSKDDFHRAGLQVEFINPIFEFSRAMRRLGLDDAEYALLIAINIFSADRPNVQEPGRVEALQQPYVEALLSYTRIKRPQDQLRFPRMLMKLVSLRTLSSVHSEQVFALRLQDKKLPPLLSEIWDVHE

[10] = biological target: Vasopressin V1b receptor (Homo sapiens, UniProt P47901); assay: Late-stage results from the probe development effort to identify antagonists of arginine vasopressin receptor 1a (AVPR1a): fluorescence-based cell-based dose response AVPR1b inhibition counterscreen assay.; assay type: functional
Vasopressin V1b receptor, sequence (P47901 whole entry): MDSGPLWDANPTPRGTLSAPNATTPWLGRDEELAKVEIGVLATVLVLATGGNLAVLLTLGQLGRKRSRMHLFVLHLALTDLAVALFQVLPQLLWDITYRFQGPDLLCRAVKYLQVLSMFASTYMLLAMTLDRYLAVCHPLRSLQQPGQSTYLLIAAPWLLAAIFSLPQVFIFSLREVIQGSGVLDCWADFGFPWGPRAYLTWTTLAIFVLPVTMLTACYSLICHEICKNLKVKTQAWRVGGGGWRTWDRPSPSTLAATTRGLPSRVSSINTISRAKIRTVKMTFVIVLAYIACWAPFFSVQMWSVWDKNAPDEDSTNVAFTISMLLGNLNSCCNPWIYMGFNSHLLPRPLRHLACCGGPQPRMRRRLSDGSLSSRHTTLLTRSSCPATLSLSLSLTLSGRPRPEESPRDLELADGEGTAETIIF

[11] = Late-stage results from the probe development effort to identify antagonists of arginine vasopressin receptor 1a (AVPR1a): fluorescence-based cell-based dose response OXTR inhibition counterscreen assay.; assay type: functional
[12] = biological target: Vasopressin V2 receptor (Homo sapiens, UniProt P30518); assay: Late-stage results from the probe development effort to identify antagonists of arginine vasopressin receptor 1a (AVPR1a): fluorescence-based cell-based dose response AVPR2 inhibition counterscreen assay.; assay type: functional
[13] = Late-stage results from the probe development effort to identify antagonists of arginine vasopressin receptor 1a (AVPR1a): fluorescence-based cell-based dose response AVPR1a inhibition assay.; assay type: functional
[14] = biological target: T3, Beta-2 adrenergic receptor (Homo sapiens, UniProt P07550); assay: Dose response for HTS for Beta-2AR agonists via FAP method from Powderset2.; assay type: functional
T3 sequence (P07550 whole entry): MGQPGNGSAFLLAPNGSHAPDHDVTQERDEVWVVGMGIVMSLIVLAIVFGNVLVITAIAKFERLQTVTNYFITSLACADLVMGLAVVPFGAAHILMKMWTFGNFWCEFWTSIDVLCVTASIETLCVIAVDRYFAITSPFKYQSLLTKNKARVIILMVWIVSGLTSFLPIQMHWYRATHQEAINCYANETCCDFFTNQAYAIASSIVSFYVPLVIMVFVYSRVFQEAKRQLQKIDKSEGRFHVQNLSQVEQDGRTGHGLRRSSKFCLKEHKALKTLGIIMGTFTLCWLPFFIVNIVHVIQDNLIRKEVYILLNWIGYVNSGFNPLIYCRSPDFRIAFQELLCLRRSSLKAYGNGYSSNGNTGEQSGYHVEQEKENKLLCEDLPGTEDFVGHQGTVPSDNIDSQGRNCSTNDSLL

[15] = biological target: T3, Beta-2 adrenergic receptor; assay: ADRB2 activation measured by internalization – cell-based, FAP fluorogen, flow cytometry, cherry pick 1, dose response (AID 588763); assay type: functional
[16] = viability loss in HEK293 kidney cells – cell-based, cherry-picks, set 5, cytotoxicity control, dose response (AID 1053117); assay type: functional
[17] = viability loss in HepG2 hepatoma cells – cell-based, cherry-picks, set 5, cytotoxicity control, dose response (AID 1053118); assay type: functional
[18] = test system: Vero; assay: viability loss in Vero cells – cell-based, plate reader, cherry-pick samples, cytotoxicity control, dose response (AID 687020); assay type: functional; details: Chlorocebus sabaeus
[19] = biological target: Beta-galactosidase (Escherichia coli, UniProt Q8VNN2); assay: Dose response counterscreen for EBI2 assay utilizing the enzyme, b-galactosidase.; assay type: functional
[20] = cells; details: HEK293
[21] = biological target: T4, Protein skinhead-1 (Caenorhabditis elegans, UniProt P34707); assay type: functional
T4 sequence (P34707 whole entry): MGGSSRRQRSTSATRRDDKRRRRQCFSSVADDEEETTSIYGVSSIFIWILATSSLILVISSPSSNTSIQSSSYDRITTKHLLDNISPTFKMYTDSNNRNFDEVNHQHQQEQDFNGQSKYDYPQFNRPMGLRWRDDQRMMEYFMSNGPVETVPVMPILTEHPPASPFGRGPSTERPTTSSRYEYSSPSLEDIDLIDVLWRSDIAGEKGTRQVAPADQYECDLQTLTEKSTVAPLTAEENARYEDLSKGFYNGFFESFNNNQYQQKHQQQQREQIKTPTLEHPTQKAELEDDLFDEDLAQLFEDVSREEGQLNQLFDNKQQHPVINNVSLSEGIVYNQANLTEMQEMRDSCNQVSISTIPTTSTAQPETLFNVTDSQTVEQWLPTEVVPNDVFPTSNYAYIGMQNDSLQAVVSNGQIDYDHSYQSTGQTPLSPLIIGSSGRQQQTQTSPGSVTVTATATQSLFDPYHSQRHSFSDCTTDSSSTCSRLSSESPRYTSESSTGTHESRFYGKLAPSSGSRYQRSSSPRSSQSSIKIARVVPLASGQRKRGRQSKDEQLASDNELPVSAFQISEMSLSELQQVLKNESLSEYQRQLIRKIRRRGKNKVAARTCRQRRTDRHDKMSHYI

[22] = biological target: Galanin receptor type 3 (Homo sapiens, UniProt O60755); assay: Fluorescence-based cell-based primary high throughput dose response assay to identify antagonists of the Galanin Receptor 3 (GalR3).; assay type: functional
[23] = cells; assay type: functional, cell-based; details: HEK-CNG
[24] = biological target: Luciferin 4-monooxygenase (Photinus pyralis, UniProt P08659); assay: inhibition of purified Photinus pyralis luciferase – biochemical, luminescence, dose response (AID 1891)
Luciferin 4-monooxygenase, sequence (P08659 whole entry): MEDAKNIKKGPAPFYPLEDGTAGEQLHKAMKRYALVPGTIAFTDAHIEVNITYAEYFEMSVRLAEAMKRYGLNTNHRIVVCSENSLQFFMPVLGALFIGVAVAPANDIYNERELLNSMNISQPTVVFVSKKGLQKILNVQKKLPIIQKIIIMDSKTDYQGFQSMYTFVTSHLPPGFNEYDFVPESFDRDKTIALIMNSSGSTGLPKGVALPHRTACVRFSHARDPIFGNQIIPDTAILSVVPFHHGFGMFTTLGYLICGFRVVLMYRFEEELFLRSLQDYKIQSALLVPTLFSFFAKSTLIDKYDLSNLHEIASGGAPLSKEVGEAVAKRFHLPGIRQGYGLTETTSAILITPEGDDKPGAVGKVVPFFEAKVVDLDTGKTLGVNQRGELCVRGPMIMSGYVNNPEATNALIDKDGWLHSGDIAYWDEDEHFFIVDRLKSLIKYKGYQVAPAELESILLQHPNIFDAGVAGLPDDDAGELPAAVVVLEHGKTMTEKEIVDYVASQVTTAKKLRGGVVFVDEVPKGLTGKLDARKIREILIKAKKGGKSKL

[25] = Luminescence Cell-Based Dose Confirmation HTS to Identify Inhibitors of Platelet Dense Granule Release. [Related pubchem assays: 1663 (Primary HTS), 1678 (Summary of Project)]; assay type: functional
[26] = biological target: Kallikrein-7 (Homo sapiens, UniProt P49862); assay: Fluorescence Intensity-based biochemical primary high throughput dose response assay to identify activators of kallikrein-7 (K7) zymogen.
Kallikrein-7, sequence (P49862 whole entry): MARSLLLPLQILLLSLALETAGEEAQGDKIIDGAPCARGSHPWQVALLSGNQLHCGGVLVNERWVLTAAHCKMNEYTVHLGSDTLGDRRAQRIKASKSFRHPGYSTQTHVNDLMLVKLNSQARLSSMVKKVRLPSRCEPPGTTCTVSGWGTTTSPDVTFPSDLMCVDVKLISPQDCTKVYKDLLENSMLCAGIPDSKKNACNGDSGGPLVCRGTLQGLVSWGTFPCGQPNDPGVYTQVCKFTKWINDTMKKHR

[27] = A Cell-Based Confirmatory Screen for Compounds that Inhibit VEEV, TC-83 (3).; assay type: functional
[28] = OVCAR8 cell viability loss – plate reader, dry powder samples, PAX8 project, dose response (AID 743197); assay type: functional, cell-based; details: OVCAR-8
[29] = A2780 cell killing – plate reader, dry powder samples, cytotoxicity control, dose response (AID 743046); assay type: functional, cell-based
[30] = biological target: Paired box protein Pax-8 (Homo sapiens, UniProt Q06710); assay: PAX8 transcriptional activity inhibition in RMG-I – RMG-I cells, luciferase, cherry-pick, dose response (AID 687027); assay type: functional, cell-based;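 also: luciferase reporter driven by Pax8 target thyroperoxidase promoter measured by SteadyGlo luminescence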
[31] = OVCAR-3 cell viability loss – plate reader, dry powder samples, PAX8 inhibitor project, dose response (AID 743044); assay type: functional, cell-based
[32] = cells
[33] = biological target: T5, Trace amine-associated receptor 1 (Homo sapiens, UniProt Q96RJ0); assay: Fluorescence-based cell-based high throughput dose response assay to identify antagonists of the human trace amine associated receptor 1 (TAAR1).; assay type: functional
T5 sequence (Q96RJ0 whole entry): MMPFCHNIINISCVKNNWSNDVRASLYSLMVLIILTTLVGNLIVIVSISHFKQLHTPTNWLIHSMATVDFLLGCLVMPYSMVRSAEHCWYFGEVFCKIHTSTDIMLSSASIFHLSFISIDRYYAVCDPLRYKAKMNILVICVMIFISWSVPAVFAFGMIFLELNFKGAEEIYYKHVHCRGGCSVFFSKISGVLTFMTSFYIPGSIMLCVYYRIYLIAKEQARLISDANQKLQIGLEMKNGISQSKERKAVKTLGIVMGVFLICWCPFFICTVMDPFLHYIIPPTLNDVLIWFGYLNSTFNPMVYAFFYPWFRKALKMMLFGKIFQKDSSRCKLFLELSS

[34] = Counterscreen for antagonists of the human trace amine associated receptor 1 (hTAAR1): Fluorescence-based cell-based high throughput dose response assay to identify nonselective Ga16 antagonists.; assay type: functional
[35] = biological target: T5, Trace amine-associated receptor 1; assay: Counterscreen for antagonists of the human trace amine associated receptor 1 (hTAAR1): Fluorescence-based cell-based high throughput dose response assay to identify TAAR1 Agonists.; assay type: functional
[36] = Counterscreen for […] of the human trace amine associated receptor 1 (TAAR1): Fluorescence-based cell-based high throughput dose response assay to identify nonselective Ga16 agonists.; assay type: functional
[37] = test system: H9c2; assay: cells; assay type: functional, cell-based; details: Rattus norvegicus, H9c2, Myocardium;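 also: confirmatory concentration-response retest of ultra-high-throughput screening hits for modulation of myocardial damage; cell death induced by hydrogen peroxide oxidative stress; compound pretreatment for 60 min then peroxide exposure for 2 h; potency is for protecting the cells against peroxide damage rather than for killing them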
[38] = HEK293 Cytotoxicity Assay Measured in Cell-Based System Using Plate Reader - 7071-01_Inhibitor_Dose_CherryPick_Activity_Set2.; assay type: functional
[39] = test system: Cryptococcus neoformans; assay: PubChem AID 686997; assay type: functional, organism-based
[40] = test system: HEK293; assay: viability loss in HEK293T cells – cell-based, ATP luminescence, cherry-pick samples, cytotoxicity control, dose response (AID 687005); assay type: functional; details: Homo sapiens;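 also: cells exposed to compound for 48 hours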
[41] = biological target: T3, Beta-2 adrenergic receptor; assay: Dose response for HTS for Beta-2AR agonists via FAP method from Powderset3.; assay type: functional
[42] = cells; assay type: functional, cell-based
[43] = biological target: Nuclear receptor subfamily 0 group B member 1 (Homo sapiens, UniProt P51843); assay type: functional, cell-based;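 also: HEK293T cells transfected with SF-1 and DAX-1 plus StAR promoter luciferase reporter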
[44] = cells; assay type: functional, cell-based; remark: listed apart in the source
[45] = cells; assay type: functional, cell-based; remark: listed apart in the source

1-phosphatidylinositol 4,5-bisphosphate phosphodiesterase beta-3, sequence (Q01970 whole entry): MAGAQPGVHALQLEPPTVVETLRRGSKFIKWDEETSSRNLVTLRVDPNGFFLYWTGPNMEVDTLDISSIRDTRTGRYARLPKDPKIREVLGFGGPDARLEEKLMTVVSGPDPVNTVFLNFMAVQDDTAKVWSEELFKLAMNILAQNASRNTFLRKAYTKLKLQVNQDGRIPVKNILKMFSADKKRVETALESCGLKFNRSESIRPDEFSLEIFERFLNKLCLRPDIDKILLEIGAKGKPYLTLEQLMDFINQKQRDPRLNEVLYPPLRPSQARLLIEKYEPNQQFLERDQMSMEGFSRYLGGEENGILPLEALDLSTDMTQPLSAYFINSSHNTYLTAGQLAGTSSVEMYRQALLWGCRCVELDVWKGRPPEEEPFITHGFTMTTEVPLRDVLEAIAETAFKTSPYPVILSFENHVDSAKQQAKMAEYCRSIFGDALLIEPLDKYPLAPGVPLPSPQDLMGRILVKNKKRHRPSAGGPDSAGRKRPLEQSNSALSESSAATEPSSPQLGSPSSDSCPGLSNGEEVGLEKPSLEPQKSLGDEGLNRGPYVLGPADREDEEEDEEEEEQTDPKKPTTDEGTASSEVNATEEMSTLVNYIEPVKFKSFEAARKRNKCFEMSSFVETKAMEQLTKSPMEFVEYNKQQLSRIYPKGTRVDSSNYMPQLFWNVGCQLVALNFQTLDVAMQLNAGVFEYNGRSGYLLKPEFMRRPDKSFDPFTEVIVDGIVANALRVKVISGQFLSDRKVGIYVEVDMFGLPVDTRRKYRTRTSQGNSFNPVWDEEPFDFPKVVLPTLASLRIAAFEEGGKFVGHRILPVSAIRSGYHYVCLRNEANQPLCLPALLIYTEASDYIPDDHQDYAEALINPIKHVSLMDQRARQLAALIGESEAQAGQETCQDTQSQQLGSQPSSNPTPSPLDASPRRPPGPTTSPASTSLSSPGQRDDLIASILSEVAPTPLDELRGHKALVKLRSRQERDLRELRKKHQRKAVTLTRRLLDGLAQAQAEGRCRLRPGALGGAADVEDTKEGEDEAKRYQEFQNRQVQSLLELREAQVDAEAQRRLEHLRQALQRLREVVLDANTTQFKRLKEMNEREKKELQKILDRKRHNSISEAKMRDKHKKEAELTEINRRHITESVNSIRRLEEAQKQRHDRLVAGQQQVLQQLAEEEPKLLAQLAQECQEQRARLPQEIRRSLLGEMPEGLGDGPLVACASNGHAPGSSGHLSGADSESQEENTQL

Cc1c(N2C(=O)c3cccc4cccc(c34)C2=O)c(=O)n(-c2ccccc2)n1C
IC50 [1]: > 122 µM (inactive)
IC50 [2]: > 122 µM (inactive)

O=C(CSc1nnc(NC(=O)c2ccccc2[N+](=O)[O-])s1)NCc1ccco1
IC50 [3]: > 59.6 µM (inactive)
IC50 [4]: > 59.6 µM (inactive)
IC50 [5]: > 59.6 µM (inactive)

COc1ccc(C#Cc2ccc(C(=O)N3CC4CCC(=O)C4C3)cc2)cc1 (stereo unspecified)
IC50 [6]: 2.05 µM

COc1ccccc1C(=O)Nc1cccc(NC(=O)c2ccccc2)c1
IC50 [7]: 1.74 µM (active)

Cc1ccc(S(=O)(=O)N2CC[C@@H]3[C@H]2c2cc(-c4cccc(C(=O)N(C)C)c4)ccc2N[C@@H]3CO)cc1
AC50 [8]: 4.45 µM (active)

O=C(/C=C/c1ccccc1)N1CCC(c2ccccc2)C1 (stereo unspecified)
EC50 [9]: > 67.5 µM (inactive)

N#Cc1ccc(N2CCC(C(=O)N(CC3CC3)c3ccc(Cl)cc3)CC2)nc1
IC50 [10]: 25.7 µM (inactive)
IC50 [11]: 20.1 µM (inactive)
IC50 [12]: 30.2 µM (inactive)
IC50 [13]: 0.8 µM (active)

CN(CC(=O)N1CCN(c2ccccn2)CC1)S(=O)(=O)c1ccc(Cl)cc1
EC50 [14]: 0.357 µM (active)
EC50 [15]: 0.0396 µM (active)

CO[C@H]1CN(C)C(=O)c2ccc(NC(=O)Nc3cc(Cl)cc(Cl)c3)cc2OC[C@H](C)NC[C@@H]1C
AC50 [16]: 41.1 µM (active)
AC50 [17]: 30.9 µM (active)

O=C(Nc1ccc2c(c1)OCO2)c1cc(C2CCCCN2C(=O)OCCF)on1 (stereo unspecified)
AC50 [18]: 31.8 µM (active)

COc1ccc(NC(=O)c2ccc(OC(=S)N(C)c3ccc(OC)cc3)cc2)cc1
IC50 [19]: > 80 µM (inactive)

Cc1cc2cc(CNC(=O)c3ccco3)ccc2n1C
AC50 [20]: > 52 µM (inactive)
IC50 [21]: 73.3 µM (inactive)

CC1CC(=O)NN=C1c1ccc(N(C)C)c([N+](=O)[O-])c1 (stereo unspecified)
IC50 [22]: 1.72 µM (active)
EC50 [23]: > 29.9 µM (inactive)
EC50 [24]: > 112 µM (not active)
EC50 [25]: 0.149 µM (active)

COc1ccc(-c2ccc3nnc(SCC(=O)NCC4CCCO4)n3n2)cc1 (stereo unspecified)
EC50 [26]: > 69.5 µM (inactive)

CN(C(=O)Cc1cccs1)c1nc2c(s1)CCCC2
IC50 [27]: 2.92 µM (active)

C[C@@H]1CCCCO[C@H](CN(C)C(=O)c2ccccc2)[C@H](C)CN([C@@H](C)CO)C(=O)c2cc(NC(=O)Nc3ccc(C(F)(F)F)cc3)ccc2O1
AC50 [28]: 34.4 µM (active)
AC50 [29]: 64.1 µM (active)
AC50 [30]: 6.57 µM (active)
AC50 [31]: 19.9 µM (active)

C=CCc1c(O)c(CC)cc2c(C)cc(=O)oc12
AC50 [32]: 0.903 µM (active)

CN1C(=O)CSc2ccc(NC(=O)Nc3ccccn3)cc21
IC50 [33]: 5.8 µM (active)
IC50 [34]: > 29.9 µM (inactive)
EC50 [35]: > 29.9 µM (inactive)
EC50 [36]: > 29.9 µM (inactive)
IC50 [37]: 49 µM (inactive)

COC(=O)C1=C(C)N(Cc2ccc(Br)cc2)C(=S)NC1c1ccccc1 (stereo unspecified)
AC50 [38]: 19.8 µM (active)
AC50 [39]: 18.8 µM (active)
AC50 [40]: 19.8 µM (active)

C=CCn1c(CCNC(=O)c2cccs2)nnc1SCC(=O)c1ccc(Cl)cc1
EC50 [41]: 0.00153 µM (active)
EC50 [15]: 0.167 µM (active)

Cc1cc(C)c2nc(N3CCN(C(=O)c4ccco4)CC3)sc2c1
EC50 [42]: > 350 µM (not active)
IC50 [43]: > 67.5 µM (inactive)
EC50 [44]: 55.3 µM (active)
IC50 [45]: > 67.5 µM (inactive)
